{"source": "patent US7527967B2", "about": "“Recombinant baculovirus and virus-like particle” (priority 2003, dated 2009)"}
{"tested_on": "vAtEGp64S966 baculovirus (spike protein) entry into Vero E6 cells", "assay_type": "cell-based"}
{"smiles": "CSc1ccc2c(c1)N(CCC1CCCCN1C)c1ccccc1S2", "note": "(stereo not drawn) [compound 2025, Thioridazine]", "blocking the entry of baculovirus into Vero E6 cells": "very effective in blocking the entry"}
{"smiles": "CN1CCN(CCCN2c3ccccc3Sc3ccc(Cl)cc32)CC1", "note": "[compound 0643, Prochlorperazine]", "blocking the entry of baculovirus into Vero E6 cells": "very effective in blocking the entry"}
{"smiles": "CCC(=O)c1ccc2c(c1)N(CC(C)N(C)C)c1ccccc1S2", "note": "(stereo not drawn) [compound 0649, Propiomazine]", "blocking the entry of baculovirus into Vero E6 cells": "very effective in blocking the entry"}
